{"source": "paper PMC5218480", "about": "(PLoS ONE, 2017)", "test_system": "MV-4-11 cells", "experiment": "Gene expression microarray analysis (Affymetrix PrimeView) and GSEA", "assay_type": "cell-based, human", "set-up": "RFU PODN (11730768_x_at) / Fold change /veh PODN (11730768_x_at) / RFU LINC00158 (11744669_a_at) / Fold change /veh LINC00158 (11744669_a_at) / RFU DUSP10 (11751237_a_at) / Fold change /veh DUSP10 (11751237_a_at) / RFU ID3 (11757404_x_at) / Fold change /veh ID3 (11757404_x_at) / RFU PLEKHG5 (11737974_s_at) / Fold change /veh PLEKHG5 (11737974_s_at) / RFU LRRC4B (11730491_at) / Fold change /veh LRRC4B (11730491_at) / RFU GIMAP4 (11747438_a_at) / Fold change /veh GIMAP4 (11747438_a_at) / RFU KRT8 (11758183_x_at) / Fold change /veh KRT8 (11758183_x_at) / RFU CNN1 (11734310_a_at) / Fold change /veh CNN1 (11734310_a_at) / RFU VPS37D (11726825_at) / Fold change /veh VPS37D (11726825_at) / RFU C10orf10 (11716522_x_at) / Fold change /veh C10orf10 (11716522_x_at) / RFU KIR2DL2 /// KIR2DL4 /// KIR2DL5A /// KIR2DL5B /// KIR2DS1 /// KIR2DS2 /// KIR2DS3 /// KIR2DS4 /// KIR3DL3 /// KIR3DL3 /// KIR3DS1 (11738374_at) / Fold change /veh KIR2DL2 /// KIR2DL4 /// KIR2DL5A /// KIR2DL5B /// KIR2DS1 /// KIR2DS2 /// KIR2DS3 /// KIR2DS4 /// KIR3DL3 /// KIR3DL3 /// KIR3DS1 (11738374_at) / RFU C1QL1 (11718748_at) / Fold change /veh C1QL1 (11718748_at) / RFU TMPRSS4 (11747572_a_at) / Fold change /veh TMPRSS4 (11747572_a_at) / RFU HAMP (11756126_x_at) / Fold change /veh HAMP (11756126_x_at) / RFU RNFT2 (11725882_a_at) / Fold change /veh RNFT2 (11725882_a_at) / RFU NR4A2 (11747474_a_at) / Fold change /veh NR4A2 (11747474_a_at) / RFU ABCC12 (11746883_a_at) / Fold change /veh ABCC12 (11746883_a_at) / RFU TMEM136 (11760407_x_at) / Fold change /veh TMEM136 (11760407_x_at) / RFU CLDN22 /// WWC2 (11732394_at) / Fold change /veh CLDN22 /// WWC2 (11732394_at) / RFU HLA-DPB1 (11760878_x_at) / Fold change /veh HLA-DPB1 (11760878_x_at) / RFU SPINT1 (11716480_a_at) / Fold change /veh SPINT1 (11716480_a_at) / RFU GAP43 (11754022_s_at) / Fold change /veh GAP43 (11754022_s_at) / RFU A4GNT (11735810_at) / Fold change /veh A4GNT (11735810_at) / RFU PRB3 (11715151_x_at) / Fold change /veh PRB3 (11715151_x_at) / RFU TUBB4B (11761932_at) / Fold change /veh TUBB4B (11761932_at) / RFU CAPN14 (11732068_a_at) / Fold change /veh CAPN14 (11732068_a_at) / RFU TMCC2 (11721928_a_at) / Fold change /veh TMCC2 (11721928_a_at) / RFU IRGQ (11745062_a_at) / Fold change /veh IRGQ (11745062_a_at) / RFU FAM174B (11720279_a_at) / Fold change /veh FAM174B (11720279_a_at) / RFU TMPRSS4 (11748680_a_at) / Fold change /veh TMPRSS4 (11748680_a_at) / RFU FAM212B (11763350_a_at) / Fold change /veh FAM212B (11763350_a_at) / RFU PLEKHG5 (11743358_a_at) / Fold change /veh PLEKHG5 (11743358_a_at) / RFU ZSCAN30 (11745921_a_at) / Fold change /veh ZSCAN30 (11745921_a_at) / RFU CMKLR1 (11741424_a_at) / Fold change /veh CMKLR1 (11741424_a_at) / RFU LOC101060620 /// MAPK8IP1 (11723275_at) / Fold change /veh LOC101060620 /// MAPK8IP1 (11723275_at) / RFU SPTSSB (11747773_x_at) / Fold change /veh SPTSSB (11747773_x_at) / RFU PRSS12 (11739890_at) / Fold change /veh PRSS12 (11739890_at) / RFU BIN1 (11741810_x_at) / Fold change /veh BIN1 (11741810_x_at) / RFU WNT11 (11732464_a_at) / Fold change /veh WNT11 (11732464_a_at) / RFU C10orf10 (11716521_a_at) / Fold change /veh C10orf10 (11716521_a_at) / RFU C5orf56 (11738089_at) / Fold change /veh C5orf56 (11738089_at) / RFU CYB561 (11721691_x_at) / Fold change /veh CYB561 (11721691_x_at) / RFU ANKRD19P (11752326_a_at) / Fold change /veh ANKRD19P (11752326_a_at) / RFU OR2T12 /// OR2T33 /// OR2T8 (11738714_s_at) / Fold change /veh OR2T12 /// OR2T33 /// OR2T8 (11738714_s_at) / RFU VCAN (11748164_a_at) / Fold change /veh VCAN (11748164_a_at) / RFU JSRP1 (11732532_at) / Fold change /veh JSRP1 (11732532_at) / RFU KRTAP10-11 (11738290_x_at) / Fold change /veh KRTAP10-11 (11738290_x_at) / RFU MYO3A (11730013_a_at) / Fold change /veh MYO3A (11730013_a_at) / RFU EBF3 (11725865_a_at) / Fold change /veh EBF3 (11725865_a_at) / RFU CAMK2N1 (11719241_x_at) / Fold change /veh CAMK2N1 (11719241_x_at) / RFU C5orf56 (11738088_a_at) / Fold change /veh C5orf56 (11738088_a_at) / RFU OLFML3 (11715873_a_at) / Fold change /veh OLFML3 (11715873_a_at) / RFU LOC100653217 /// NTM (11731650_a_at) / Fold change /veh LOC100653217 /// NTM (11731650_a_at) / RFU MAPK11 (11762145_a_at) / Fold change /veh MAPK11 (11762145_a_at) / RFU FIZ1 (11724087_x_at) / Fold change /veh FIZ1 (11724087_x_at) / RFU OASL (11726364_x_at) / Fold change /veh OASL (11726364_x_at) / RFU SOX15 (11748057_x_at) / Fold change /veh SOX15 (11748057_x_at) / RFU CD79A (11719716_a_at) / Fold change /veh CD79A (11719716_a_at) / RFU HIST1H1D (11736915_at) / Fold change /veh HIST1H1D (11736915_at) / RFU CASKIN2 (11723855_a_at) / Fold change /veh CASKIN2 (11723855_a_at) / RFU LOC730098 (11760151_x_at) / Fold change /veh LOC730098 (11760151_x_at) / RFU OR4N2 (11742367_at) / Fold change /veh OR4N2 (11742367_at) / RFU PRRT2 (11749266_a_at) / Fold change /veh PRRT2 (11749266_a_at) / RFU SNX32 (11753110_a_at) / Fold change /veh SNX32 (11753110_a_at) / RFU CDHR5 (11726645_a_at) / Fold change /veh CDHR5 (11726645_a_at) / RFU RCAN1 (11760418_a_at) / Fold change /veh RCAN1 (11760418_a_at) / RFU FAM167A (11723789_a_at) / Fold change /veh FAM167A (11723789_a_at) / RFU FAM26E (11764081_at) / Fold change /veh FAM26E (11764081_at) / RFU ISYNA1 (11749810_s_at) / Fold change /veh ISYNA1 (11749810_s_at) / RFU ACY1 (11761880_at) / Fold change /veh ACY1 (11761880_at) / RFU 11764098_at / Fold change /veh 11764098_at / RFU SAMD14 (11745864_x_at) / Fold change /veh SAMD14 (11745864_x_at) / RFU NPB (11741838_a_at) / Fold change /veh NPB (11741838_a_at) / RFU TMPRSS6 (11731388_a_at) / Fold change /veh TMPRSS6 (11731388_a_at) / RFU KRTAP10-2 (11738614_at) / Fold change /veh KRTAP10-2 (11738614_at) / RFU ARHGAP8 /// PRR5-ARHGAP8 (11727945_x_at) / Fold change /veh ARHGAP8 /// PRR5-ARHGAP8 (11727945_x_at) / RFU KRTAP5-7 /// NADSYN1 (11734609_at) / Fold change /veh KRTAP5-7 /// NADSYN1 (11734609_at) / RFU RASL12 (11751679_a_at) / Fold change /veh RASL12 (11751679_a_at) / RFU CDKN2B (11736163_a_at) / Fold change /veh CDKN2B (11736163_a_at) / RFU PRF1 (11729649_at) / Fold change /veh PRF1 (11729649_at) / RFU, ZNF638 /// ZNF638-IT1 / Fold change vs veh, ZNF638 /// ZNF638-IT1 / RFU, PANK3 / Fold change vs veh, PANK3 / RFU, SH3YL1 / Fold change vs veh, SH3YL1 / RFU, ZEB2 / Fold change vs veh, ZEB2 / RFU, NRIP1 / Fold change vs veh, NRIP1 / RFU, PTTG1IP / Fold change vs veh, PTTG1IP / RFU, CAPN2 / Fold change vs veh, CAPN2 / RFU, MED14 / Fold change vs veh, MED14 / RFU, SNORA58 / Fold change vs veh, SNORA58 / RFU, C1orf63 / Fold change vs veh, C1orf63 / RFU, LRRFIP1 / Fold change vs veh, LRRFIP1 / RFU, NDUFAF7 / Fold change vs veh, NDUFAF7 / RFU, SLC12A2 / Fold change vs veh, SLC12A2 / RFU, IBTK / Fold change vs veh, IBTK / RFU, ESF1 / Fold change vs veh, ESF1 / Fold change vs veh, TMEM50B / RFU, TAOK1 / Fold change vs veh, TAOK1 / RFU, ACBD3 / Fold change vs veh, ACBD3 / RFU, TMA16 / Fold change vs veh, TMA16 / RFU, RWDD3 / Fold change vs veh, RWDD3 / RFU, BCAT1 / Fold change vs veh, BCAT1 / RFU, EDEM3 / Fold change vs veh, EDEM3 / RFU, TMEM33 / Fold change vs veh, TMEM33 / RFU, WDR75 / Fold change vs veh, WDR75 / RFU, AHCTF1 / Fold change vs veh, AHCTF1 / RFU, TFRC / Fold change vs veh, TFRC / RFU, ZDHHC17 / Fold change vs veh, ZDHHC17 / RFU, NOM1 / Fold change vs veh, NOM1 / RFU, ARL8B / Fold change vs veh, ARL8B / RFU, ZBTB11 / Fold change vs veh, ZBTB11 / RFU, TAMM41 / Fold change vs veh, TAMM41 / RFU, KIAA1704 /// LOC100996395 / Fold change vs veh, KIAA1704 /// LOC100996395 / RFU, ING1 / Fold change vs veh, ING1 / RFU, TRMT61B / Fold change vs veh, TRMT61B / RFU, FUBP3 / Fold change vs veh, FUBP3 / RFU, TP53 / Fold change vs veh, TP53 / RFU, TNKS2 / Fold change vs veh, TNKS2 / RFU, ZFP14 / Fold change vs veh, ZFP14 / RFU, ACTR2 / Fold change vs veh, ACTR2 / RFU, PPP3R1 / Fold change vs veh, PPP3R1 / RFU, PIK3R1 / Fold change vs veh, PIK3R1 / RFU, HNRNPA1 / Fold change vs veh, HNRNPA1 / RFU, RNF170 / Fold change vs veh, RNF170 / RFU, ZNF28 / Fold change vs veh, ZNF28 / RFU, RNGTT / Fold change vs veh, RNGTT / RFU, OGT / Fold change vs veh, OGT / RFU, BRD1 / Fold change vs veh, BRD1 / RFU, MARS / Fold change vs veh, MARS / RFU, ZNF655 / Fold change vs veh, ZNF655 / RFU, FAHD1 / Fold change vs veh, FAHD1 / RFU, BDP1 / Fold change vs veh, BDP1 / RFU, LRRCC1 / Fold change vs veh, LRRCC1 / RFU, ARID1A / Fold change vs veh, ARID1A / RFU, ZNF146 / Fold change vs veh, ZNF146 / RFU, ZNF330 / Fold change vs veh, ZNF330 / RFU, GPN3 / Fold change vs veh, GPN3 / RFU, C9orf123 / Fold change vs veh, C9orf123 / RFU, N4BP2L2 / Fold change vs veh, N4BP2L2 / RFU, ARFIP1 / Fold change vs veh, ARFIP1 / RFU, FAM179B / Fold change vs veh, FAM179B / RFU, BCL10 / Fold change vs veh, BCL10 / RFU, UHRF1BP1L / Fold change vs veh, UHRF1BP1L / RFU, BET1 / Fold change vs veh, BET1 / RFU, CNOT2 / Fold change vs veh, CNOT2 / RFU, ZNF268 / Fold change vs veh, ZNF268 / Fold change vs veh, ZNF507 / RFU, DGCR2 / Fold change vs veh, DGCR2 / RFU, WDSUB1 / Fold change vs veh, WDSUB1 / Fold change vs veh, HSP90B1 /// MIR3652 / RFU, ADSS / Fold change vs veh, ADSS / RFU, GK / Fold change vs veh, GK / RFU, ZNF148 / Fold change vs veh, ZNF148 / RFU, TAF9 / Fold change vs veh, TAF9 / RFU, SLC1A5 / Fold change vs veh, SLC1A5 / RFU, SLMO2 / Fold change vs veh, SLMO2 / RFU, ABCC4 / Fold change vs veh, ABCC4 / RFU, LOC101060439 /// RAP1B / Fold change vs veh, LOC101060439 /// RAP1B / RFU, RFX7 / Fold change vs veh, RFX7 / RFU, GTPBP10 / Fold change vs veh, GTPBP10 / RFU, CNEP1R1 / Fold change vs veh, CNEP1R1 / RFU, BIVM-ERCC5 /// ERCC5 / Fold change vs veh, BIVM-ERCC5 /// ERCC5 / RFU, ILF3 / Fold change vs veh, ILF3 / RFU 11762660_at / Fold change /veh 11762660_at / RFU VCAN (11757783_s_at) / Fold change /veh VCAN (11757783_s_at) / RFU DDX43 (11728927_at) / Fold change /veh DDX43 (11728927_at) / RFU KRT8 (11758188_x_at) / Fold change /veh KRT8 (11758188_x_at) / RFU NKD1 (11759106_at) / Fold change /veh NKD1 (11759106_at) / RFU SRD5A1 (11742802_a_at) / Fold change /veh SRD5A1 (11742802_a_at) / RFU TPSAB1 /// TPSB2 (11721975_s_at) / Fold change /veh TPSAB1 /// TPSB2 (11721975_s_at) / RFU GSTM3 (11746129_a_at) / Fold change /veh GSTM3 (11746129_a_at) / RFU IL23R (11737362_x_at) / Fold change /veh IL23R (11737362_x_at) / RFU TMEM51 (11727254_a_at) / Fold change /veh TMEM51 (11727254_a_at) / RFU PIWIL2 (11732686_x_at) / Fold change /veh PIWIL2 (11732686_x_at) / RFU ORM1 (11744905_x_at) / Fold change /veh ORM1 (11744905_x_at) / RFU CCDC152 (11743942_at) / Fold change /veh CCDC152 (11743942_at) / RFU ECM1 (11717891_a_at) / Fold change /veh ECM1 (11717891_a_at) / RFU IL23R (11748794_a_at) / Fold change /veh IL23R (11748794_a_at) / RFU TNFAIP8L3 (11732012_x_at) / Fold change /veh TNFAIP8L3 (11732012_x_at) / RFU MBOAT4 (11741988_at) / Fold change /veh MBOAT4 (11741988_at) / RFU 11764193_at / Fold change /veh 11764193_at / RFU TMEM53 (11763286_at) / Fold change /veh TMEM53 (11763286_at) / RFU MAGEB2 (11727129_at) / Fold change /veh MAGEB2 (11727129_at) / RFU TMEM200A (11744735_a_at) / Fold change /veh TMEM200A (11744735_a_at) / RFU CCDC152 (11751479_a_at) / Fold change /veh CCDC152 (11751479_a_at) / RFU FAM211A (11726209_a_at) / Fold change /veh FAM211A (11726209_a_at) / RFU RGS16 (11746705_a_at) / Fold change /veh RGS16 (11746705_a_at) / RFU VCAN (11755009_s_at) / Fold change /veh VCAN (11755009_s_at) / RFU RHOB (11743442_s_at) / Fold change /veh RHOB (11743442_s_at) / RFU RGS16 (11720943_a_at) / Fold change /veh RGS16 (11720943_a_at) / RFU RGS16 (11720944_at) / Fold change /veh RGS16 (11720944_at) / RFU, VPS4B / Fold change vs veh, VPS4B / RFU, CREB1 / Fold change vs veh, CREB1 / RFU, DNAJC13 / Fold change vs veh, DNAJC13 / RFU, GNAQ / Fold change vs veh, GNAQ / RFU, CDK5R1 / Fold change vs veh, CDK5R1 / RFU, ZRANB3 / Fold change vs veh, ZRANB3 / RFU, CUL4A / Fold change vs veh, CUL4A / RFU, CCNY / Fold change vs veh, CCNY / RFU, UFL1 / Fold change vs veh, UFL1 / RFU, COG3 / Fold change vs veh, COG3 / RFU, DIAPH2 / Fold change vs veh, DIAPH2 / RFU, SKA2 / Fold change vs veh, SKA2 / RFU, AFF3 / Fold change vs veh, AFF3 / RFU, LMF1 / Fold change vs veh, LMF1 / RFU, IPO11 / Fold change vs veh, IPO11 / RFU, DFFB / Fold change vs veh, DFFB / RFU, FOXP1 / Fold change vs veh, FOXP1 / RFU, CARD8 / Fold change vs veh, CARD8 / RFU, STRN3 / Fold change vs veh, STRN3 / RFU, ADK / Fold change vs veh, ADK / RFU, RASSF2 / Fold change vs veh, RASSF2 / RFU, WIPF1 / Fold change vs veh, WIPF1 / RFU, LARP1B / Fold change vs veh, LARP1B / RFU, RASA1 / Fold change vs veh, RASA1 / RFU, RB1 / Fold change vs veh, RB1 / RFU, PPFIA1 / Fold change vs veh, PPFIA1 / RFU, MAT2A / Fold change vs veh, MAT2A / RFU, CCT5 / Fold change vs veh, CCT5 / RFU, WDR92 / Fold change vs veh, WDR92 / RFU, CUX1 / Fold change vs veh, CUX1 / RFU, TTC7A / Fold change vs veh, TTC7A / RFU, TMEM135 / Fold change vs veh, TMEM135 / RFU, DEPTOR / Fold change vs veh, DEPTOR / RFU, CPM / Fold change vs veh, CPM / RFU, DNAJB6 / Fold change vs veh, DNAJB6 / RFU, CACNA2D3 / Fold change vs veh, CACNA2D3 / RFU, DTX4 / Fold change vs veh, DTX4 / RFU, TFCP2 / Fold change vs veh, TFCP2 / RFU, GMCL1 /// GMCL1P1 / Fold change vs veh, GMCL1 /// GMCL1P1 / RFU, AEBP2 / Fold change vs veh, AEBP2 / RFU, SNHG1 /// SNORD22 /// SNORD25 /// SNORD26 /// SNORD27 /// SNORD28 /// SNORD29 /// SNORD31 / Fold change vs veh, SNHG1 /// SNORD22 /// SNORD25 /// SNORD26 /// SNORD27 /// SNORD28 /// SNORD29 /// SNORD31 / Fold change (Aza/veh), C12orf56 (ProbeSet 11735607_a_at) / Fold change (ACY-1035/veh), C12orf56 (ProbeSet 11735607_a_at) / Fold change (Aza/veh), FGFR1OP (ProbeSet 11751329_s_at) / Fold change (ACY-1035/veh), FGFR1OP (ProbeSet 11751329_s_at) / Fold change (Aza/veh), VPS36 (ProbeSet 11739960_a_at) / Fold change (ACY-1035/veh), VPS36 (ProbeSet 11739960_a_at) / RFU SYPL1 (11715823_x_at) / Fold change /veh SYPL1 (11715823_x_at) / RFU IGFBP7 (11715501_s_at) / Fold change /veh IGFBP7 (11715501_s_at) / RFU REEP3 (11722064_at) / Fold change /veh REEP3 (11722064_at) / RFU IGLL1 (11728026_x_at) / Fold change /veh IGLL1 (11728026_x_at): dose or concentration left out as unconfirmed", "conditions": "ProbeSet 11758919_x_at; LIST D"}
{"compound": "Nc1ccc(-c2cccs2)cc1NC(=O)c1ccc2c(c1)cc(C1CC1)n2CCN1CCOCC1", "note": "[ACY-1035]", "values": [{"measurement": "RFU, TFCP2", "value": 87.13, "unit": "RFU"}]}
